The Kinase Knowledgebase extract (Sharma et al. 2016)
Several values for one entry are separate records, joined by “and”; a condition that tells them apart may be missing. Identical values can stand only once.

Target: PIK3CD (Human) (UniProt O00329)
Test: Enzyme Assay

Sequence of PIK3CD (Human) (O00329 whole entry, looked up): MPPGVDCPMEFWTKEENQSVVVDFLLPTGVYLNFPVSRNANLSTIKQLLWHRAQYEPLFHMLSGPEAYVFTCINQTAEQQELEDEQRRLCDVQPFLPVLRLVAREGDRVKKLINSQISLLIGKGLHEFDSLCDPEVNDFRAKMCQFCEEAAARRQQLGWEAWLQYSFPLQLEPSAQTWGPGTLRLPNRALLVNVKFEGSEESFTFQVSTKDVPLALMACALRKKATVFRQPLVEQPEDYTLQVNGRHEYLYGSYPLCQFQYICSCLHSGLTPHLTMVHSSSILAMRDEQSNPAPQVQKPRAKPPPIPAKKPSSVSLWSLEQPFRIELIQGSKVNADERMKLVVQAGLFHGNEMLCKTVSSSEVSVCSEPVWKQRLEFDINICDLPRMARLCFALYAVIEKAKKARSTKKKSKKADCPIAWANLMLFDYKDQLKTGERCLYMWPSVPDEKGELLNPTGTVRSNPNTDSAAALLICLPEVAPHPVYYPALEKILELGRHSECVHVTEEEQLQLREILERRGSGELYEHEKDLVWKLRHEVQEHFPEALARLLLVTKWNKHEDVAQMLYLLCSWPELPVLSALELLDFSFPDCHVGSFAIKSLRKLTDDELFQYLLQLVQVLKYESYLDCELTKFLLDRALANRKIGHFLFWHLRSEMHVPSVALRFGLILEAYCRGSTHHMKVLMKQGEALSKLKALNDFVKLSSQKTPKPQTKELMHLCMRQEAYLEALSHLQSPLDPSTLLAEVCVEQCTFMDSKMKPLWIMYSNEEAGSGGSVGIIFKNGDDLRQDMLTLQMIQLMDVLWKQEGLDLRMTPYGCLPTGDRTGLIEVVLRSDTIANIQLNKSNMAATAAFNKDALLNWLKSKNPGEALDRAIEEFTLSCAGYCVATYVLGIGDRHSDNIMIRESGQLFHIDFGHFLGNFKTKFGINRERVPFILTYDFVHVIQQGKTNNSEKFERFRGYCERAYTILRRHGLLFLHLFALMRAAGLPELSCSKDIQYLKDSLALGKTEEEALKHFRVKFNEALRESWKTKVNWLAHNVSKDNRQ

Row | SMILES | IC50
1 | CCn1ncc(-c2nc3c(O[C@H]4CCN(C(=O)N[C@H](C)c5ccccc5)C4)ncnc3n2C)c1C | 0.63 µM
2 | CCn1c(-c2cnc(C)nc2)nc2c(O[C@H]3CCN(C(=O)OC(C)(C)C)C3)ncnc21 | 0.0083 µM
3 | CCn1c(-c2cnc(C)nc2)nc2c(O[C@H]3CCN(C(=O)C=C(C)C)C3)ncnc21 | 0.0044 µM
4 | CCc1oncc1C(=O)N1CC[C@H](Oc2ncnc3c2nc(-c2cnn(CC)c2C)n3C)C1 | 0.027 µM
5 | CCn1ncc(-c2nc3c(S[C@H]4CCN(C(=O)C5CC5)C4)ncnc3n2C)c1C | 0.0038 µM
6 | CCn1c(-c2cnc(C(C)(C)C)s2)nc2c(O[C@H]3CCN(C(=O)OC(C)(C)C)C3)ncnc21 | 0.0005 µM
7 | CCn1ncc(-c2nc3c(S[C@H]4CCN(C(=O)OC(C)(C)C)C4)ncnc3n2C)c1C | 0.023 µM
8 | CCn1c(-c2cnc(C)nc2)nc2c(O[C@H]3CCN(C(=O)C4CCOC4)C3)ncnc21 (stereo partly specified) | 0.0058 µM
9 | CCn1ncc(-c2nc3c(O[C@H]4CCN(C(=O)c5ccnn5C)C4)ncnc3n2C)c1C | 0.022 µM
10 | CCn1c(-c2cnc(C)nc2)nc2c(O[C@H]3CCCN(c4ccccn4)C3)ncnc21 | 0.073 µM
11 | CCn1ncc(-c2nc3c(O[C@H]4CCN(C(=O)CC#N)C4)ncnc3n2C)c1C | 0.038 µM
12 | CCn1c(-c2cnc(OC)c(Cl)c2)nc2c(O[C@H]3CCN(C(=O)C4CC4)C3)ncnc21 | < 0.001 µM
13 | CCn1c(-c2cnc(C)nc2)nc2c(O[C@H]3CCN(C(=O)C4CC4C)C3)ncnc21 (stereo partly specified) | 0.0015 µM
14 | CCn1c(-c2cnc(C)nc2)nc2c(O[C@H]3CCN(C(=O)N4CCCCC4)C3)ncnc21 | 0.021 µM
15 | CCn1c(-c2cnc(C)nc2)nc2c(O[C@H]3CCN(C(=O)N(C)c4ccccc4)C3)ncnc21 | 0.032 µM
16 | CCn1c(-c2cnc(C)nc2)nc2c(OC3CN(C(=O)C4CC4)CC3C)ncnc21 (stereo unspecified) | 0.0029 µM
17 | Cn1c(-c2ccc(-n3cccn3)cc2)nc2c(O[C@H]3CCN(C(=O)OC(C)(C)C)C3)ncnc21 | 0.03 µM
18 | CCn1ncc(-c2nc3c(O[C@H]4CCN(C(=O)c5ccccn5)C4)ncnc3n2C)c1C | 0.027 µM
19 | CCn1ncc(-c2nc3c(O[C@H]4CCN(C(=O)c5nccn5C)C4)ncnc3n2C)c1C | 0.035 µM
20 | CCn1c(N(C)C(C)C)nc2c(O[C@H]3CCN(C(=O)OC(C)(C)C)C3)ncnc21 | 0.58 µM
21 | CCn1c(-c2cnc(C)nc2)nc2c(OC3(C)CCN(C(=O)C4CC4)C3)ncnc21 (stereo unspecified) | 0.0087 µM
22 | CCn1ncc(-c2nc3c(O[C@H]4CCN(C(=O)c5cnon5)C4)ncnc3n2C)c1C | 0.041 µM
23 | CCn1c(-c2cnc(C)nc2)nc2c(O[C@H]3CCN(C(=O)[C@@H](N)C(C)C)C3)ncnc21 | 0.0098 µM

Row | SMILES | IC50
24 | CCn1ncc(-c2nc3c(O[C@H]4CCN(c5ncnc6ccsc56)C4)ncnc3n2C)c1C | 0.012 µM
25 | CCC(=O)N1CC[C@H](Oc2ncnc3c2nc(-c2cnc(C)nc2)n3CC)C1 | 0.013 µM
26 | CCCn1c(-c2cnc(C)nc2)nc2c(O[C@H]3CCN(C(=O)CC)C3)ncnc21 | 0.13 µM
27 | CCn1ncc(-c2nc3c(O[C@H]4CCN(C(=O)c5cc(C)nn5C)C4)ncnc3n2C)c1C | 0.019 µM
28 | CCn1ncc(-c2nc3c(O[C@H]4CCN(C(=O)C5CC(=O)N(C(C)C)C5)C4)ncnc3n2C)c1C (stereo partly specified) | 0.01 µM
29 | CCn1c(-c2ccc(OC(F)(F)F)cc2)nc2c(O[C@H]3CCN(C(=O)C4CC4)C3)ncnc21 | 0.0093 µM
30 | CCCn1c(-c2cnn(CC)c2C)nc2c(O[C@H]3CCN(C(=O)CC)C3)ncnc21 | 0.058 µM
31 | CCC(=O)N1CC[C@H](Oc2ncnc3c2nc(C(F)(F)F)n3C)C1 | 0.43 µM
32 | CCn1ncc(-c2nc3c(O[C@H]4CCN(CC5CCCCC5)C4)ncnc3n2C)c1C | 0.3 µM
33 | CCC(=O)N1CC[C@H](Oc2ncnc3c2nc(-c2ccc(OC)c(C(F)(F)F)c2)n3C)C1 | 0.0025 µM
34 | COC1CC(c2nc3c(O[C@H]4CCN(C(=O)OC(C)(C)C)C4)ncnc3n2C)C1 (stereo partly specified) | 2.1 µM
35 | CCC(=O)N1CC[C@H](Oc2ncnc3c2nc(-c2ccc(OC)c(C)c2)n3C)C1 | 0.0046 µM
36 | CCn1c(-c2cnc(C)nc2)nc2c(O[C@H]3CCN(C(=O)N4CCC4)C3)ncnc21 | 0.0013 µM
37 | CCn1c(-c2cnc(C)nc2)nc2c(O[C@@H]3CN(C(=O)C4CC4)C[C@H]3OC)ncnc21 | 0.041 µM
38 | CCn1ncc(-c2nc3c(O[C@H]4CCN(C(=O)OC(C)(C)C)C4)ncnc3n2C)c1C | 0.0043 µM
39 | CCC(=O)N1CC[C@H](Oc2ncnc3c2nc(-c2cnn(CC)c2C)n3C2CC2)C1 | 0.16 µM
40 | CCn1ncc(-c2nc3c(O[C@H]4CCN(C(=O)Oc5ccc6ccccc6c5)C4)ncnc3n2C)c1C | 0.11 µM
41 | CCn1ncc(-c2nc3c(O[C@H]4CCN(c5ncnc6sc(C)cc56)C4)ncnc3n2C)c1C | 0.0052 µM
42 | CCn1c(-c2cnc(C)nc2)nc2c(OC3CCN(C(=O)N(C)c4ccccc4)CC3)ncnc21 | 0.046 µM
43 | CCn1ncc(-c2nc3c(O[C@H]4CCN(C(=O)c5oc(C)nc5C)C4)ncnc3n2C)c1C | 0.0037 µM
44 | CCC(=O)N1CC[C@H](Oc2ncnc3c2nc(-c2ccc4cc[nH]c4c2)n3C)C1 | 0.12 µM
45 | CCn1ncc(-c2nc3c(CC4CCN(C(=O)C5CCOCC5)C4)ncnc3n2C)c1C (stereo unspecified) | 0.29 µM
46 | CCn1ncc(-c2nc3c(O[C@H]4CCN(C(=O)c5c[nH]nc5C(F)(F)F)C4)ncnc3n2C)c1C | 0.021 µM

Row | SMILES | IC50
47 | CCn1ncc(-c2nc3c(S[C@H]4CCN(C(=O)OCC(C)C)C4)ncnc3n2C)c1C | 0.03 µM
48 | CCn1ncc(-c2nc3c(O[C@H]4CCN(S(=O)(=O)c5ccc6ccccc6c5)C4)ncnc3n2C)c1C | 0.22 µM
49 | CCNC(=O)c1nc2c(O[C@H]3CCN(C(=O)OC(C)(C)C)C3)ncnc2n1CC | 0.31 µM
50 | CCn1ncc(-c2nc3c(OC4CCN(C(=O)OC(C)(C)C)CC4)ncnc3n2C)c1C | 0.61 µM
51 | CCn1ncc(-c2nc3c(O[C@H]4CCN(C(=O)c5cnn(C)c5)C4)ncnc3n2C)c1C | 0.014 µM
52 | CCn1ncc(-c2nc3c(O[C@H]4CCN(C(=O)c5oncc5C)C4)ncnc3n2C)c1C | 0.0051 µM
53 | CCn1c(-c2cnc(OC)c(C#N)c2)nc2c(O[C@H]3CCN(C(=O)C4CC4)C3)ncnc21 | 0.0024 µM
54 | CCn1c(-c2cnc(C)nc2)nc2c(O[C@H]3CCN(C(=O)N4CCC(C)(C)C4)C3)ncnc21 | 0.0038 µM
55 | CCC(=O)N1CC[C@H](Oc2ncnc3c2nc(-c2cnc(OC)c(NS(C)(=O)=O)c2)n3C)C1 | 0.002 µM
56 | CCn1ncc(-c2nc3c(O[C@H]4CCN(C(=O)c5cn6cccnc6n5)C4)ncnc3n2C)c1C | 0.1 µM
57 | CCn1ncc(-c2nc3c(O[C@H]4CCN(C(=O)c5cnn6cc[nH]c56)C4)ncnc3n2C)c1C | 0.27 µM
58 | CCn1c(-c2cnc(OC)nc2)nc2c(O[C@H]3CCN(C(=O)C4CC4)C3)ncnc21 | 0.0063 µM
59 | CCC(=O)N1CC[C@H](Oc2ncnc3c2nc(-c2cnc(OC)c(C#N)c2)n3C)C1 | 0.0084 µM
60 | CCOC(=O)N1CC[C@H](Sc2ncnc3c2nc(-c2cnn(CC)c2C)n3C)C1 | 0.037 µM
61 | CCn1c(-c2cnc(C)nc2)nc2c(O[C@H]3CCN(C(=O)N4CC5CC5C4)C3)ncnc21 (stereo partly specified) | 0.0057 µM
62 | CCn1ncc(-c2nc3c(O[C@H]4CCN(C(C)=O)C4)ncnc3n2C)c1C | 0.056 µM
63 | CCn1ncc(-c2nc3c(O[C@H]4CCN(C(=O)OC(C)C)C4)ncnc3n2C)c1C | 0.0081 µM
64 | CCn1ncc(-c2nc3c(O[C@H]4CCN(S(=O)(=O)c5cn(C)cn5)C4)ncnc3n2C)c1C | 1.5 µM
65 | CCn1c(N2CCC(c3ccccc3)CC2)nc2c(O[C@H]3CCN(C(=O)OC(C)(C)C)C3)ncnc21 | 0.12 µM
66 | CCn1ncc(-c2nc3c(O[C@H]4CCN(C(=O)c5c(C)noc5C)C4)ncnc3n2C)c1C | 0.088 µM
67 | CCn1ncc(-c2nc3c(S[C@H]4CCN(C(=O)c5coc(C)n5)C4)ncnc3n2C)c1C | 0.025 µM
68 | CC[C@@H]1CN(C(=O)OCc2ccccc2)C[C@H]1Oc1ncnc2c1nc(-c1cnc(C)nc1)n2CC.CC[C@H]1CN(C(=O)OCc2ccccc2)C[C@@H]1Oc1ncnc2c1nc(-c1cnc(C)nc1)n2CC | 0.09 µM
69 | CCn1ncc(-c2nc3c(OC4CCN(C(=O)C5CCCC5)C4)ncnc3n2C)c1C (stereo unspecified) | 0.0094 µM

Row | SMILES | IC50
70 | Cn1cnc2c(O[C@H]3CCN(C(=O)OC(C)(C)C)C3)ncnc21 | 1.4 µM
71 | CCn1ncc(-c2nc3c(O[C@H]4CCN(C(=O)c5noc(C(C)(C)O)n5)C4)ncnc3n2C)c1C | 0.12 µM
72 | CCC(=O)N1CC[C@H](Oc2ncnc3c2nc(-c2cnc(C)nc2)n3C)C1 | 0.036 µM
73 | CCC(=O)N1CC[C@H](Oc2ncnc3c2nc(-c2cnn(-c4ccccc4)c2)n3C)C1 | 0.0065 µM
74 | CCC(=O)N1CC[C@H](Oc2ncnc3c2nc(Oc2cccc(C)c2C)n3C)C1 | 2.4 µM
75 | CCn1ncc(-c2nc3c(O[C@H]4CCN(C(=O)Oc5ccc(OC)cc5)C4)ncnc3n2C)c1C | 0.065 µM
76 | CCC(=O)N1CC[C@H](Oc2ncnc3c2nc(-c2ccc(C(F)(F)F)nc2)n3C)C1 | 0.099 µM
77 | CCn1ncc(-c2nc3c(O[C@H]4CCN(C(=O)c5cc(C(F)(F)F)nn5C)C4)ncnc3n2C)c1C | 0.026 µM
78 | CCn1ncc(-c2nc3c(O[C@H]4CCN(C(=O)c5ccn(C)n5)C4)ncnc3n2C)c1C | 0.0022 µM
79 | CCn1ncc(-c2nc3c(O[C@H]4CCN(c5ncnc6c5cnn6C)C4)ncnc3n2C)c1C | 0.12 µM
80 | CCn1ncc(-c2nc3c(O[C@H]4CCN(C(=O)c5ccno5)C4)ncnc3n2C)c1C | 0.0047 µM
81 | CCn1c(-c2cnc(C)nc2)nc2c(O[C@H]3CCN(C(=O)[C@@H]4CCC[C@H]4N)C3)ncnc21 | 0.039 µM
82 | CCNC(=O)N1CC[C@H](Oc2ncnc3c2nc(-c2cnc(C)nc2)n3CC)C1 | 0.019 µM
83 | CCC(=O)N1CCC(Cc2ncnc3c2nc(-c2cnn(CC)c2C)n3C)C1 (stereo unspecified) | 0.25 µM
84 | CCOC(=O)C(C)NC(=O)N1CC[C@H](Oc2ncnc3c2nc(-c2cnn(CC)c2C)n3C)C1 (stereo partly specified) | 0.11 µM
85 | CCn1ncc(-c2nc3c(O[C@H]4CCN(c5ncnc6sc(C)c(C)c56)C4)ncnc3n2C)c1C | 0.019 µM
86 | CCn1ncc(-c2nc3c(S[C@H]4CCN(c5ccncn5)C4)ncnc3n2C)c1C | 0.006 µM
87 | CC[C@@H]1CN(C(=O)C2CC2)C[C@H]1Oc1ncnc2c1nc(-c1cnc(C)nc1)n2CC.CC[C@H]1CN(C(=O)C2CC2)C[C@@H]1Oc1ncnc2c1nc(-c1cnc(C)nc1)n2CC | 0.0061 µM and 0.02 µM
88 | CC(=O)Nc1ccc(-c2nc3c(O[C@H]4CCN(C(=O)OC(C)(C)C)C4)ncnc3n2C)cc1 | 0.14 µM
89 | CCn1c(-c2cnc(OC)c(F)c2)nc2c(O[C@H]3CCN(C(=O)C4CC4)C3)ncnc21 | < 0.001 µM
90 | CCn1c(-c2cnc(OC)c(C(F)(F)F)c2)nc2c(O[C@H]3CCN(C(=O)C4CC4)C3)ncnc21 | < 0.001 µM
91 | CCn1c(-c2cnc(C)nc2)nc2c(OC3CCC(NC(=O)C4CCOCC4)C3)ncnc21 (stereo unspecified) | 0.17 µM
